≈ marks a conversion by molar mass, not a printed value. Read-outs that look alike come from different tables or passages of the source. Marks after values point to notes of the source that are not given here.
Tests used:
[1] = tested on: B. anthracis; conditions: cited from earlier work
[2] = tested on: S. aureus (ATCC 25923); conditions: MSSA ATCC 25923; data taken from ref. 6; cited from earlier work
[3] = tested on: methicillin-resistant S. aureus (MRSA); conditions: MRSA ATCC 43300; data taken from ref. 6; cited from earlier work
[4] = tested on: S. aureus (ATCC 25923); conditions: MSSA ATCC 25923; data from ref. 6 (PenG, 2g) or ref. 52 (vancomycin); cited from earlier work
[5] = tested on: MRSA (ATCC 43300); conditions: cited from earlier work
[6] = target: T1, FabH derived from E. coli (ecFabH) (Escherichia coli, UniProt P0A6R0); assay: FabH enzyme assay (coupled trichloroacetic acid precipitation assay), ecFabH; assay type: biochemical; conditions: for IC50: 15 min preincubation at 23° C., duplicate assays, read-out: IC50 against ecFabH; for inhibition at 5 µM: 5 μM of test compound, read-out: Percent inhibition of FabH derived from E. coli, ecFabH (%); for Percent inhibition of ecFabH: 1 μM of test compound
T1 construct: polyhistidine (N); made in house; host or cells: E. coli
T1 sequence (P0A6R0 1-317): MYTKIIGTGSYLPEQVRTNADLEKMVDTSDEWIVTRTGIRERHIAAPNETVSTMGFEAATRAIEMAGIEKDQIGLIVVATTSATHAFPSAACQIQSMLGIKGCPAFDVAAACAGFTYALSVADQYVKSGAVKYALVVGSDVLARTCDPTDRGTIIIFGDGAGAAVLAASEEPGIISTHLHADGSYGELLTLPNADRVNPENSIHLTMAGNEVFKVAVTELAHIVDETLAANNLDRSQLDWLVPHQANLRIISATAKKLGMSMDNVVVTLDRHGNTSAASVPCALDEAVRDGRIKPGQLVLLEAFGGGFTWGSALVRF

[7] = tested on: S. aureus (ATCC 25923); assay: microbe, parasite or virus in culture; assay type: cell-based, Staphylococcus aureus; conditions: for Zones of growth inhibition, S. aureus / zone of inhibition at 20 µg/disc: 24 h, 37° C.; for zone of inhibition at 20 µg/disc: Staphylococcus aureus, ATCC25923
[8] = tested on: methicillin-resistant S. aureus (MRSA); assay: microbe, parasite or virus in culture; assay type: cell-based, Staphylococcus aureus; conditions: for Zones of growth inhibition, MRSA / zone of inhibition at 20 µg/disc: 24 h, 37° C.; for zone of inhibition at 20 µg/disc: Staphylococcus aureus, MRSA, read-out: Average zones of growth inhibition of MRSA (USF-652-659, 919-920)
[9] = target: FabH derived from M. tuberculosis (mtFabH) (Mycobacterium tuberculosis, UniProt P9WNG3); conditions: for IC50: read-out: IC50 against mtFabH; for Percent inhibition of mtFabH: 10 µM
FabH derived from M. tuberculosis (mtFabH), sequence (P9WNG3 whole entry): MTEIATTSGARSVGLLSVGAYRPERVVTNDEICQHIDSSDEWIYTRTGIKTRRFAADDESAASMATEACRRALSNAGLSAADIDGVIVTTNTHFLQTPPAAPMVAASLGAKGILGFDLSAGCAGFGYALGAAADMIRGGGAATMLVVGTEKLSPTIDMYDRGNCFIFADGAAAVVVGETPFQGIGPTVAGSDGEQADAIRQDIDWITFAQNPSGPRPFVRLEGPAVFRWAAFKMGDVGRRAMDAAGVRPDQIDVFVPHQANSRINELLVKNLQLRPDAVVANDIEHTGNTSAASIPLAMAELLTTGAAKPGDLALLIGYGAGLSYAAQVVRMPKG

[10] = tested on: S. aureus (ATCC 25923); assay: Agar dilution minimum inhibitory concentration (MIC), S. aureus; assay type: cell-based, Staphylococcus aureus; conditions: for MIC: Staphylococcus aureus
[11] = tested on: B. anthracis (USF 848); assay: microbe, parasite or virus in culture; assay type: cell-based, Bacillus anthracis; conditions: Bacillus anthracis, 24 h, 37° C.
[12] = tested on: B. anthracis (USF 848); assay: microbe, parasite or virus in culture; assay type: cell-based, Bacillus anthracis; conditions: Bacillus anthracis, read-out: Minimum inhibitory concentration (MIC) against B. anthracis (USF 848)
[13] = tested on: E. coli (K12; ATCC 23590); assay: Kirby-Bauer zones of inhibition, E. coli; assay type: cell-based, Escherichia coli; conditions: K12 strain, ATCC 23590; for Zone of Inhibition (mm), E. coli, zones of partial inhibition: number in parentheses; for Zone of Inhibition (mm), E. coli: number outside parentheses
[14] = tested on: E. coli (K12; ATCC 23590); assay: Minimum inhibitory concentration (MIC), E. coli; assay type: cell-based; conditions: Escherichia coli, ATCC23590, read-out: MIC (μg/mL) against E. coli
[15] = tested on: MRSA (ATCC 43300); assay: Minimum inhibitory concentration (MIC), MRSA; assay type: cell-based, Staphylococcus aureus
[16] = tested on: M. tuberculosis; conditions: reported by Jones et al.; cited from earlier work
[17] = MRSA ATCC 43300, data taken from ref. 6
[18] = read-out: Zones of growth inhibition of S. aureus (ATCC 25923)
[19] = read-out: Zones of growth inhibition of S. aureus (ATCC 25923), areas of partial inhibition
[20] = ATCC25923, serial dilution in 24-well plate, NCCLS, read-out: Minimum inhibitory concentration (MIC) against S. aureus (ATCC 25923)
[21] = read-out: Zones of growth inhibition of B. anthracis (USF 848)
[22] = read-out: Zones of growth inhibition of B. anthracis (USF 848), areas of partial growth inhibition
[23] = ATCC 25923 / MSSA, read-out: MIC (MSSA)

| Structure (SMILES) | inhibition at 5 µM [6] | zone of inhibition at 20 µg/disc [7, 18] | zone of inhibition at 20 µg/disc [7, 19] | zone of inhibition at 20 µg/disc [8] | MIC [10, 20] | zone of inhibition at 20 µg/disc [11, 21] | MIC [12] | Zone of Inhibition (mm), E. coli, zones of partial inhibition [13] | MIC [14] | also measured |
| --- | --- | --- | --- | --- | --- | --- | --- | --- | --- | --- |
| O=C(O)c1cn(C2CC2)c2cc(N3CCNCC3)c(F)cc2c1=O [Ciprofloxacin] |  |  |  |  |  |  |  |  |  | reported value for Ciprofloxacin (for 50% growth inhibition) [1]: 0.094 |
| CC1(C)S[C@@H]2[C@H](NC(=O)Cc3ccccc3)C(=O)N2[C@H]1C(=O)O [PenG., penicillin G, reference compound] |  |  |  |  |  |  |  |  |  | Zone (MSSA) [2]: 33 mm; Zone (MRSA) [3]: 14 mm; MIC (MSSA) [4]: 0.03 µg/mL (≈ 0.0897 µM); MIC (MRSA) [5, 17]: 64 µg/mL (≈ 191 µM) |
| CCC(C)SSCCNC(=O)CCNC(=O)[C@H](O)C(C)(C)COP(=O)(O)OP(=O)(O)OC[C@H]1O[C@@H](n2cnc3c(N)ncnc32)[C@H](O)[C@@H]1OP(=O)(O)O (some centres unmarked) [Compound 25c] |  |  |  |  |  |  |  |  |  | IC50 [6]: > 300 µM; Zones of growth inhibition, S. aureus [7]: 0 mm; Zones of growth inhibition, MRSA [8]: 0 mm; IC50 [9]: > 300 µM |
| CCCSSc1ccc([N+](=O)[O-])cc1 [Compound 38e, p-Nitrophenyl n-propyl Disulfide] | 91% | 36 mm | 43 mm | 38 mm | 24 µg/mL (≈ 105 µM) | 49 mm | 1 µg/mL (≈ 4.36 µM) | 21 mm | 64 µg/mL (≈ 279 µM) | zone of inhibition at 20 µg/disc [11, 22]: 57 mm; Zone of Inhibition (mm), E. coli [13]: 16 mm |
| COC1C(=O)N(SC)C1c1ccccc1Cl (centres unmarked) [Compound 2a] |  |  |  |  |  |  |  |  |  | Percent inhibition of ecFabH [6]: 89%; Percent inhibition of mtFabH [9]: 75% |
| CCC(C)SSc1ccc([N+](=O)[O-])cc1 (centres unmarked) [Compound 38d, Sec-Butyl p-nitrophenyl Disulfide] | 96% | 47 mm | 68 mm | 54 mm | 0.8 µg/mL (≈ 3.29 µM) | 56 mm | < 0.125 µg/mL | (10) mm | 128 µg/mL (≈ 526 µM) | Zone (MSSA) [7]: 67 mm; Zone (MRSA) [8]: 54 mm; MIC [10, 23]: 0.4 µg/mL (≈ 1.64 µM); zone of inhibition at 20 µg/disc [11, 22]: 62 mm |
| CSN1C(=O)OCC1c1ccccc1 (centres unmarked) [Compound 13, reference compound] |  |  |  |  |  |  |  |  |  | Zone (MSSA) [7]: 29 mm; Zone (MRSA) [8]: 28 mm; MIC (MSSA) ([10]; MSSA ATCC 25923): 4 µg/mL (≈ 19.1 µM); MIC (MRSA) [15]: 8 µg/mL (≈ 38.2 µM) |
| CSSCCNC(=O)CCNC(=O)[C@H](O)C(C)(C)COP(=O)(O)OP(=O)(O)OC[C@H]1O[C@@H](n2cnc3c(N)ncnc32)[C@H](O)[C@@H]1OP(=O)(O)O [Compound 25a] |  |  |  |  |  |  |  |  |  | IC50 [6]: 57.1 ± 4.48 µM; Zones of growth inhibition, S. aureus [7]: 0 mm; Zones of growth inhibition, MRSA [8]: 0 mm; IC50 [9]: > 300 µM |
| CCCCCCCCSSCCNC(=O)CCNC(=O)[C@H](O)C(C)(C)COP(=O)(O)OP(=O)(O)OC[C@H]1O[C@@H](n2cnc3c(N)ncnc32)[C@H](O)[C@@H]1OP(=O)(O)O [Compound 25e] |  |  |  |  |  |  |  |  |  | IC50 [6]: > 300 µM; IC50 [9]: 23.2 ± 4.6 µM |
| CSSc1ccc([N+](=O)[O-])cc1 [Compound 38a, p-Nitrophenyl Methyl Disulfide] | 94% | 30 mm | 35 mm | 23 mm | 16 µg/mL (≈ 79.5 µM) | 47 mm | 0.25 µg/mL (≈ 1.24 µM) | 24 mm | 16 µg/mL (≈ 79.5 µM) | zone of inhibition at 20 µg/disc [11, 22]: 54 mm; Zone of Inhibition (mm), E. coli [13]: 17 mm; melting point: 29 to 32 °C |
| CCSSc1ccc([N+](=O)[O-])cc1 [Compound 38b, Ethyl p-nitrophenyl Disulfide] | 98% | 47 mm | 54 mm | 38 mm | 32 µg/mL (≈ 149 µM) | 56 mm | 0.25 µg/mL (≈ 1.16 µM) | 23 mm | 16 µg/mL (≈ 74.3 µM) | zone of inhibition at 20 µg/disc [11, 22]: 67 mm; Zone of Inhibition (mm), E. coli [13]: 15 mm |
| CN[C@H](CC(C)C)C(=O)N[C@H]1C(=O)N[C@@H](CC(N)=O)C(=O)N[C@H]2C(=O)N[C@H]3C(=O)N[C@H](C(=O)N[C@H](C(=O)O)c4cc(O)cc(O)c4-c4cc3ccc4O)[C@H](O)c3ccc(c(Cl)c3)Oc3cc2cc(c3O[C@@H]2O[C@H](CO)[C@@H](O)[C@H](O)[C@H]2O[C@H]2C[C@](C)(N)[C@H](O)[C@H](C)O2)Oc2ccc(cc2Cl)[C@H]1O [Vanc., Vancomycin, reference compound] |  |  |  |  |  |  |  |  |  | Zone (MSSA) [7]: 27 mm; Zone (MRSA) [8]: 22 mm; MIC (MSSA) [4]: 0.78^d μg/mL; MIC (MRSA) ([5]; MRSA 67, as reported by ref. 52): 0.39^d μg/mL |
| CC(C)SSc1ccc([N+](=O)[O-])cc1 [Compound 38c, Isopropyl p-nitrophenyl disulfide] | 98.5% | 68 mm | 85 mm | 75 mm | 0.4 µg/mL (≈ 1.74 µM) | 71 mm | < 0.125 µg/mL | (11) mm | 96 µg/mL (≈ 419 µM) | Zone (MSSA) [7]: 47 mm; Zone (MRSA) [8]: 70 mm; MIC [10, 23]: 0.8 µg/mL (≈ 3.49 µM) |
| CC(C)CCCCCCCS(=O)(=O)CC(N)=O [Compound 30] |  |  |  |  |  |  |  |  |  | activity against M. tuberculosis, in words [16]: good activity |
| CCCCSSc1ccc([N+](=O)[O-])cc1 [Compound 38f, n-Butyl p-nitrophenyl Disulfide] | 93% | 41 mm | 53 mm | 28 mm | 32 µg/mL (≈ 131 µM) | 44 mm | 1 µg/mL (≈ 4.11 µM) | 22 mm | 96 µg/mL (≈ 394 µM) | zone of inhibition at 20 µg/disc [11, 22]: 52 mm; Zone of Inhibition (mm), E. coli [13]: 15 mm |
| CCCCCCCCCCSSCCNC(=O)CCNC(=O)[C@H](O)C(C)(C)COP(=O)(O)OP(=O)(O)OC[C@H]1O[C@@H](n2cnc3c(N)ncnc32)[C@H](O)[C@@H]1OP(=O)(O)O [Compound 25f] |  |  |  |  |  |  |  |  |  | IC50 [6]: > 300 µM; IC50 [9]: 2.6 ± 1.6 µM |
| CCC(C)SN1C(=O)C(OC)C1c1ccccc1Cl (centres unmarked) [Compound 2g] |  |  |  |  |  |  |  |  |  | Percent inhibition of ecFabH [6]: 30%; Percent inhibition of mtFabH [9]: 4%; Zone (MSSA) [2]: 32^c mm; Zone (MRSA) [3]: 34 mm; MIC (MSSA) [4]: 0.25 µg/mL (≈ 0.834 µM); MIC (MRSA) [5, 17]: 0.25 µg/mL (≈ 0.834 µM) |
